pKi: −log10 of the molar value. Where a name gives a salt, the structure may show the parent alone.
Assays:
[1] = target: T1, σ2-receptor (Mus musculus, UniProt Q8VD00); test: Sigma-2 receptor binding, [3H]-DTG, brains from sigma-1 knockout mice; conditions: for inhibition at 1 µM: 2 h, tested compound at 10^-6 M, [3H]-DTG 3 nM, read-out: binding sigma-2 (*) % of radioactively labeled compound replaced by the tested compound; for pKi: [3H]-DTG, sigma-1 knockout mouse brain
T1 construct: brains from sigma receptor type I (sigma-1) knockout mice were homogenized; from tissue; host or cells: brain membranes of sigma-1 knockout mice
T1 sequence (Q8VD00 1-176): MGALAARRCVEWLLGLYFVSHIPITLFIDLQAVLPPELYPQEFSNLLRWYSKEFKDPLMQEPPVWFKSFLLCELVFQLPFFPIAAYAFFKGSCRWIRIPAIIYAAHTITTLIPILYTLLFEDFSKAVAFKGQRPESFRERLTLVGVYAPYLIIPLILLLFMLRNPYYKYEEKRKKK
Experimental: In brief, brains from sigma receptor type I (sigma-1) knockout mice were homogenized in a volume of 10 mL/g tissue net weight of ice-cold 10 mM Tris-HCl, pH 7.4, containing 320 mM sucrose (Tris-sucrose buffer) with a Potter-Elvehjem homogenizer (10 strokes at 500 r.p.m.) The homogenates were then centrifuged at 1000 g for 10 min at 4° C., and the supernatants were saved. The pellets were resuspended by vortexing in 2 mL/g ice-cold Tris-sucrose buffer and centrifuged again at 1000 g for 10 min. The combined 1000 g supernatants were centrifuged at 31000 g for 15 min at 4° C. The pellets were resuspended by vortexing in 3 mL/g 10 mM Tris-HCl, pH 7.4, and the suspension was kept at 25° C. for 15 min.
The assay tubes contained 10 μL of [^3H]-DTG (final concentration of 3 nM), 400 μL of the tissue suspension (5.3 mL/g in 50 mM Tris-HCl, pH 8.0) to a final assay volume of 0.5 mL. Non-specific binding was defined by addition of a final concentration of 1 μM haloperidol. […] Filters were washed with three times with 5 mL volumes of cold Tris-HCl buffer (10 mM, pH 8.0). Following addition of scintillation cocktail samples were allowed to equilibrate overnight.

[2] = target: T2, σ1-receptor (Cavia porcellus, UniProt Q60492); test: Sigma-1 receptor binding, [3H](+)-pentazocine, brain membranes; parameters: species or system guinea pig; conditions: for inhibition at 1 µM: 2.5 h, tested compound at 10^-6 M, [3H](+)-pentazocine 0.5 nM, read-out: binding sigma-1 (*) % of radioactively labeled compound replaced by the tested compound; for pKi: [3H](+)-pentazocine, guinea pig brain membranes, read-out: binding sigma-1 Ki
T2 construct: guinea pig brains were homogenized; from tissue; host or cells: guinea pig brain membranes
T2 sequence (Q60492 whole entry): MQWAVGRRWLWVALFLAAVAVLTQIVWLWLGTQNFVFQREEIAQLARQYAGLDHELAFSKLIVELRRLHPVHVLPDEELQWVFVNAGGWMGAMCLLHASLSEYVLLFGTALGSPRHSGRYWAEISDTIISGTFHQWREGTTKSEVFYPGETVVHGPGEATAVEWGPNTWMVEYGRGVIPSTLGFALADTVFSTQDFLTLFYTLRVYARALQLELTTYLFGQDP

SMILES | inhibition at 1 µM [1] [%] | inhibition at 1 µM [2] [%] | pKi [2] | melting point [°C] | pKi [1]
CN(CCC1CCc2c1cnn2-c1ccccc1)Cc1ccccc1 (stereo not drawn) [Example 52, N-benzyl-2-(1,4,5,6-tetrahydro-1-phenylcyclopenta[c]pyrazol-4-yl)-N-methylethanamine] | 104 | 106 | 8.41 | – | –
Fc1ccc(-n2ncc3c2CCCC3CCN2CCC(c3ccccc3)CC2)cc1 (stereo not drawn) [Example 72, 1-(4-fluorophenyl)-4,5,6,7-tetrahydro-4-(2-(4-phenylpiperidin-1-yl)ethyl)-1H-indazole] | – | – | – | 93 to 94.5 | –
C(/CN1CCC(c2ccccc2)C1)=C1/CCCc2c1cnn2-c1ccccc1 (stereo not drawn) [Example 24, (E)-4,5,6,7-tetrahydro-1-phenyl-4-(2-(3-phenylpyrrolidin-1-yl)ethylidene)-1H-indazole] | 103 | 100 | 8.96 | – | 7.31
C(/CN1CCCCC1)=C1/CCCc2c1cnn2-c1ccccc1 [Example 27, (E)-4,5,6,7-tetrahydro-1-phenyl-4-(2-(piperidin-1-yl)ethylidene)-1H-indazole] | 77 | 99.6 | 8.12 | – | –
Clc1ccc(-n2ncc3c2CCCC3CCN2CCC(c3ccccc3)CC2)cc1Cl (stereo not drawn) (as salt: oxalate) [Example 4, 1-(3,4-dichlorophenyl)-4,5,6,7-tetrahydro-4-(2-(4-phenylpiperidin-1-yl)ethyl)-1H-indazole oxalate] | – | – | – | 133 to 134 | –
C[C@@H]1CN(CCC2CCCc3c2cnn3-c2ccc(F)cc2)C[C@H](C)O1.O=C(O)C(=O)O (stereo partly drawn) [Example 68, cis-1-(4-fluorophenyl)-4,5,6,7-tetrahydro-4-(2-(2,6-dimethylmorpholin-4-yl)ethyl)-1H-indazole oxalate] | 99.8 | 98 | 7.83 | 164 to 169 | 7.45
O=C(O)C(=O)O.c1ccc(-n2ncc3c2CCCC3CCN2CCCCC2)cc1 (stereo not drawn) [Example 14, 4,5,6,7-tetrahydro-1-phenyl-4-(2-(piperidin-1-yl)ethyl)-1H-indazole oxalate] | 89 | 99.8 | 8.64 | 185 to 188 | –
O=C(O)C(=O)O.c1ccc(C2CCN(CCC3CCCc4c3cnn4-c3ccccc3)CC2)cc1 (stereo not drawn) [Example 9, 4,5,6,7-tetrahydro-1-phenyl-4-(2-(4-phenylpiperidin-1-yl)ethyl)-1H-indazole oxalate] | 107 | 101 | 8.82 | 124 to 125 | 7.43
O=C(O)C(=O)O.c1ccc(-n2ncc3c2CCCC3CCN2CCOCC2)cc1 (single isomer, unassigned; (+)) [Example 74, (+)-4,5,6,7-tetrahydro-4-(2-(morpholin-4-yl)ethyl)-1-phenyl-1H-indazole oxalate] | – | – | – | 175 to 176 | –
c1ccc(-n2ncc3c2CCC3CCN2CCCCC2)cc1 (stereo not drawn) [Example 37, 1,4,5,6-tetrahydro-1-phenyl-4-(2-(piperidin-1-yl)ethyl)cyclopenta[c]pyrazole] | 79.9 | 102 | 8.96 | – | –
O=C(O)C(=O)O.c1ccc(CN2CCN(CCC3CCc4c3cnn4-c3ccccc3)CC2)cc1 (stereo not drawn) | – | – | – | 215 to 218 | –
Clc1ccc(-n2ncc3c2CCCC3CCN2CCC(c3ccccc3)CC2)cc1Cl (stereo not drawn) [Example 4, 1-(3,4-dichlorophenyl)-4,5,6,7-tetrahydro-4-(2-(4-phenylpiperidin-1-yl)ethyl)-1H-indazole oxalate] | 98 | 100 | 7.97 | – | 6.50
CN(CCC1CCCc2c1cnn2-c1ccccc1)Cc1ccccc1 (stereo not drawn) [Example 54, N-benzyl-2-(4,5,6,7-tetrahydro-1-phenyl-1H-indazol-4-yl)-N-methylethanamine] | 100 | 105 | 8.06 | – | –
CN(CCC1CCCc2c1cnn2-c1ccc(F)cc1)Cc1ccccc1 (stereo not drawn) [Example 69, N-benzyl-2-(1-(4-fluorophenyl)-4,5,6,7-tetrahydro-1H-indazol-4-yl)-N-methylethanamine] | 99.3 | 103 | 8.59 | – | 7.66
Fc1ccc(-n2ncc3c2CCCC3CCN2Cc3ccccc3C2)cc1.O=C(O)C(=O)O (stereo not drawn) | – | – | – | 176 to 179 | –
C(/CN1CCC(c2ccccc2)C1)=C1/CCCc2c1cnn2-c1ccccc1.O=C(O)C(=O)O (stereo not drawn) | – | – | – | 178 to 181 | –
C(/CN1CCC(c2ccccc2)CC1)=C1/CCCc2c1cnn2-c1ccccc1 [Example 17, (E)-4,5,6,7-tetrahydro-1-phenyl-4-(2-(4-phenylpiperidin-1-yl)ethylidene)-1H-indazole] | 83.8 | 100 | 8.60 | – | 6.73
Fc1ccc(-n2ncc3c2CCCC3CCN2CCOCC2)cc1.O=C(O)C(=O)O (stereo not drawn) [Example 66, 1-(4-fluorophenyl)-4,5,6,7-tetrahydro-4-(2-(morpholin-4-yl)ethyl)-1H-indazole oxalate] | – | 98.1 | 8.62 | 148 to 151 | –
C(/CN1CCc2ccccc2C1)=C1/CCCc2c1cnn2-c1ccccc1.O=C(O)C(=O)O | – | – | – | 217 to 218 | –
c1ccc(-n2ncc3c2CCC3CCN2CCSCC2)cc1 (stereo not drawn) [Example 97, 1,4,5,6-tetrahydro-1-phenyl-4-[2-(thiomorpholin-4-yl)ethyl]cyclopenta[c]pyrazole oxalate] | – | 102 | 9.21 | – | –
C(/CN1Cc2ccccc2C1)=C1/CCCc2c1cnn2-c1ccccc1 | – | – | – | 130 to 131 | –
c1ccc(-n2ncc3c2CCC3CCN2CCCC2)cc1 (stereo not drawn) [Example 40, 1,4,5,6-tetrahydro-1-phenyl-4-(2-(pyrrolidin-1-yl)ethyl)cyclopenta[c]pyrazole oxalate] | 97.3 | 101 | 8.46 | – | –
CC1CCN(CCC2CCc3c2cnn3-c2ccccc2)CC1 (stereo not drawn) [Example 99, 1,4,5,6-tetrahydro-4-(2-(4-methylpiperidin-1-yl)ethyl)-1-phenylcyclopenta[c]pyrazole oxalate] | – | 102 | 8.82 | – | –
O=C(O)C(=O)O.c1ccc(N2CCN(CCC3CCCc4c3cnn4-c3ccccc3)CC2)cc1 (stereo not drawn) | – | – | – | 177 to 180 | –
CC1CCN(CCC2CCCc3c2cnn3-c2ccccc2)CC1 (stereo not drawn) [Example 94, 4,5,6,7-Tetrahydro-4-(2-(4-methylpiperidin-1-yl)ethyl)-1-phenyl-1H-indazole oxalate] | – | 103 | 8.72 | – | –
Cn1ncc2c1CCCC2CCN1CCOCC1.O=C(O)C(=O)O (stereo not drawn) | – | – | – | 137.7 to 139.3 | –
Fc1ccc(-n2ncc3c2CCCC3CCN2Cc3ccccc3C2)cc1 (stereo not drawn) [Example 70, 1-(4-fluorophenyl)-4,5,6,7-tetrahydro-4-(2-(isoindolin-2-yl)ethyl)-1H-indazole] | 108 | 100 | 7.79 | – | 7.84
c1ccc(-n2ncc3c2CCCC3CCN2CCOCC2)cc1 (stereo not drawn) (as salt: oxalate) [Example 2, 4,5,6,7-tetrahydro-4-(2-(morpholin-4-yl)ethyl)-1-phenyl-1H-indazole oxalate] | – | – | – | 150 to 151 | –
